Measurements: patent US20210161131A1, “cis-p-Menthane-1,8-Di-secondary Amine Compounds as well as Their Preparation Methods and Application in Weed Control” (RESEARCH INSTITUTE OF FORESTRY NEW TECHNOLOGY, CHINESE …, priority 2019, published 2021)

Test system: barnyard grass seeds
Assay: Petri dish seed germination method: inhibition of root and stem growth of barnyard grass
Format: in vivo
Conditions: 96 hours incubation
Procedure: (§1) Step 2: Accurately weigh 1 mmol cis-p-menthane-1,8-di-Schiff base compounds and cis-p-menthane-1,8-di-secondary amine compounds respectively, dissolve each of them with 0.25 mL DMF, and add a drop of Tween 80 in each resulted solution. After being fully dissolved, each solution is transferred to a 100 mL volumetric flask respectively and then diluted to the mark with distilled water to obtain a solution with a concentration of 10 mmol/L as the mother liquor. The two-fold dilution method is used to prepare diluted solutions with a series of concentrations (the concentrations of DMF and Tween 80 in the diluted solutions are the same as those in the mother liquor).
(§2) Barnyard grass seeds are placed in a 28° C. incubator and are soaked in an appropriate amount of distilled water for 12 hours there. After the clean water is filtered out, the seeds are then placed in the 28° C. incubator for 24 hours to germinate. Spread 2 pieces of filter paper in each of several Petri dishes, and place 10 barnyard grass seeds with the same size in each dish. Repeat each treatment for three times The dishes are divided into two groups: test dishes and control dishes. Add into each test dish 10 mL of the sample solution with the corresponding concentration of the target compound, and add into each control dish the same amount of the mixture of water, DMF and Tween 80 as the blank control. Add 10 seeds to each of the dishes (both test dishes and control dishes), place them in an artificial climate incubator, and incubate them for 96 hours under a temperature of 28° C., an illumination of 5000 1×, a photoperiod of day:night=16:8 and a relative humidity of 70-80%. The experimental data is processed and analyzed with DPS software to calculate the inhibition rate (y) of cis-p-menthane-1,8-di-secondary amine compounds on the root growth or stem growth of barnyard grass seeds.
Wherein, y is the inhibition rate of root growth or stem growth (%), x0 is the root length or stem length of the control, and x1 is the root length or stem length of the sample.
as §1, with “Accurately” for “Step 2: Accurately”, “cis-p-menthane-1,8-bis-(4-chlorophenyl)Schiff” for “cis-p-menthane-1,8-di-Schiff”, “base” for “base compounds”, “cis-p-menthane-1,8-bis-(4-chlorobenzyl)amine” for “cis-p-menthane-1,8-di-secondary amine compounds”, “(5 mmol/L, 2.5 mmol/L, 1.25 mmol/L, 0.625 mmol/L, 0.3125 mmol/L and 0.1563 mmol/L; the” for “(the”
as §2, with “placed in a 30° C. incubator” for “placed in the 28° C. incubator”, “in each Petri dish,” for “in each of several Petri dishes,”, “each Petri dish, and place” for “several Petri dishes, and place”, “with the above corresponding concentration” for “with the corresponding concentration”, “with DPS software.” for “with DPS software to calculate the inhibition rate (y) of cis-p-menthane-1,8-di-secondary amine compounds on the root growth or stem growth of barnyard grass seeds.”

SMILES	inhibition rate on the root growth of barnyard grass seeds (0.15625 mmol/L) [%]	inhibition rate on the stem growth of barnyard grass seeds (0.15625 mmol/L) [%]	inhibition rate on the root growth of barnyard grass seeds (0.3125 mmol/L) [%]	inhibition rate on the stem growth of barnyard grass seeds (0.3125 mmol/L) [%]	inhibition rate on the root growth of barnyard grass seeds (0.625 mmol/L) [%]	inhibition rate on the stem growth of barnyard grass seeds (0.625 mmol/L) [%]	inhibition rate on the root growth of barnyard grass seeds (1.25 mmol/L) [%]	inhibition rate on the stem growth of barnyard grass seeds (1.25 mmol/L) [%]	inhibition rate on the root growth of barnyard grass seeds (2.5 mmol/L) [%]	inhibition rate on the stem growth of barnyard grass seeds (2.5 mmol/L) [%]	inhibition rate on the root growth of barnyard grass seeds (5 mmol/L) [%]	inhibition rate on the stem growth of barnyard grass seeds (5 mmol/L) [%]
CC1(NCc2ccc(Br)o2)CCC(C(C)(C)NCc2ccc(Br)o2)CC1 (stereo not drawn) [cis-p-menthane-1,8-bis-(5-bromofuran-2-methyl)amine]	42.2	10.1	39.6	5.6	54.8	11.6	61.5	30.3	84.4	50.5	90.7	71.8
CC1(NCc2ccncc2)CCC(C(C)(C)NCc2ccncc2)CC1 (stereo not drawn) [cis-p-menthane-1,8-bis(pyridine-4-methyl)amine]	19.0	28.6	37.9	34.5	40.6	32.7	71.5	53.5	91.2	71.3	96.5	86.7
Cc1ccc(CNC(C)(C)[C@H]2CC[C@@](C)(NCc3ccc(C)o3)CC2)o1 [cis-p-menthane-1,8-bis-(5-methylfuran-2-methyl)amine]	23.1	7.2	41.3	12.5	24.7	6.8	50.3	17.1	64.4	36.5	95.5	79.8
CN(C)c1ccc(C=NC(C)(C)[C@H]2CC[C@@](C)(N=Cc3ccc(N(C)C)cc3)CC2)cc1 [cis-p-menthane-1,8-bis-(4-dimethylaminobenzyl)Schiff base, reference compound]			9.7	−12.2	45.4	9.5	49.8	6.9	59.3	1.9	67.1	13.2
